Source: patent US11191288B2, “Use of a feed composition for reducing methane emission in ruminants, and/or to improve ruminant performance” (DSM IP ASSETS B.V., priority 2017, dated 2021)

Assays:
rumen liquor [1] = experiment: Effect on volatile fatty acids (VFA) profile, acetate/propionate ratio (modified Hohenheim Forage value Test, HFT); assay type: cell-based; conditions: for Ace./Prop.: 8 h, 39° C., artificial TMR, average of three experiments
Procedure: (§1) A modified version of the “Hohenheim Forage value Test (HFT)” was used for testing the effect of specific compounds on the rumen functions mimicked by this in-vitro system.
(§2) Feed is gadded into a syringe with a composition of rumen liquor and an appropriate mixture of buffers. The solution is incubated at 39° C. After 8 hours the quantity (and composition) of gas phase produced is measured and put into a formula for conversion.
(§3) The feed stuff is sieved to 1 mm—usually TMR (44% concentrate, 6% hay, 37% maize silage and 13% grass silage)—and weighed exactly into 64 syringes. 4 of these syringes are the substrate controls, which display the gas production without the effect of the tested compounds. […] When needed, 4 syringes contain a carrier control (if the test compounds need a carrier). The remaining syringes contain the test substances, by groups of 4 syringes.
(§4) Preparation of the Medium Solution: • The components are mixed in a Woulff bottle in following order: • 711 ml water • 0.18 ml trace element solution • 355.5 ml buffer solution • 355.5 ml mass element solution • The completed solution is warmed up to 39° C. followed by the addition of 1.83 ml sodium salt solution and the addition of reduction solution at 36° C. The rumen liquor is added, when the indicator turns colourless.
(§5) 750 ml of rumen liquor are added to approximately 1,400 ml of medium solution under continued agitation and CO2-gassing.
Filling the Syringes, Incubation and Determining Gas Volumes and VFA Values:
(§6) The diluted rumen fluid (24 ml) is added to the glass syringe. The syringes are then incubated for 8 hours at 39° C. under gentle agitation. After 8 hours, the volume of gas produced is measured, and the percentage of methane in the gas phase is determined by gas chromatography.
(§7) The food fermented was artificial TMR (44% concentrate, 6% hay, 37% maize silage and 13% grass silage). Lauric acid from Sigma Aldrich was used at a concentration of 1000 μM. 3-Nitrooxy-propanol (3-NOP) was used at two different concentrations, 2.5 μM and 5 μM.
(§8) Ace.=acetate; Prop.=propionate

rumen liquor [2] = experiment: In vitro test for methane production (modified Hohenheim Forage value Test, HFT); assay type: cell-based; conditions: for Total methane: 8 h, 39° C., artificial TMR, average of three experiments
Procedure: In Vitro Test for Methane Production:
as §1, §2, §3, §4, §5, §6, §7, §8

Structure (SMILES)	Reduction vs. control (Ace./Prop.) (rumen liquor [1]; 3-NOP 2.5 μM) [Mole Ratio]	Ace./Prop. (rumen liquor [1]; 3-NOP 2.5 μM) [Mole Ratio]	Reduction vs. control (Ace./Prop.) (rumen liquor [1]; 3-NOP 5 μM) [Mole Ratio]	Ace./Prop. (rumen liquor [1]; 3-NOP 5 μM) [Mole Ratio]	Reduction vs. control (methane) (rumen liquor [2]; 3-NOP 2.5 μM) [mmol over 8 h]	Total methane (rumen liquor [2]; 3-NOP 2.5 μM) [mmol over 8 h]	Reduction vs. control (methane) (rumen liquor [2]; 3-NOP 5 μM) [mmol over 8 h]	Total methane (rumen liquor [2]; 3-NOP 5 μM) [mmol over 8 h]	Reduction vs. control (Ace./Prop.) (rumen liquor [1]; Lauric acid 1000 μM) [Mole Ratio]	Ace./Prop. (rumen liquor [1]; Lauric acid 1000 μM) [Mole Ratio]	Reduction vs. control (methane) (rumen liquor [2]; Lauric acid 1000 μM) [mmol over 8 h]	Total methane (rumen liquor [2]; Lauric acid 1000 μM) [mmol over 8 h]
O=[N+]([O-])OCCCO [3-NOP, 3-Nitrooxypropanol]	0.17	2.09	0.63	1.63	0.023	0.244	0.17	0.097				
CCCCCCCCCCCC(=O)O [Lauric acid, reference compound]									0.28	1.98	0.012	0.255
